Reference: US11053196B2, “Substituted indoline derivatives as dengue viral replication inhibitors” (JANSSEN PHARMACEUTICALS, INC., priority 2017, dated 2021)

Assays:
[1] = system: DENV-4 strain H241; experiment: Tetravalent RT-qPCR assay, serotype 4; format: cell-based; conditions: Dengue virus, DENV4, 72 h; RT-qPCR serotype 4 H241, Vero cells, day 3
Procedure: (§1) The antiviral activity of the compounds of the invention was tested against DENV-1 strain TC974#666 (NCPV), DENV-2 strain 16681, DENV-3 strain H87 (NCPV) and DENV-4 strain H241 (NCPV) in a RT-qPCR assay. Therefore, Vero cells were infected with either DENV-1, or -2, or -3, or -4 in the presence or absence of test compounds. At day 3 post-infection, the cells were lysed and cell lysates were used to prepare cDNA of both a viral target (the 3′UTR of DENV; Table 2) and a cellular reference gene (1-actin, Table 2). Subsequently, a duplex real time PCR was performed on a Lightcycler480 instrument. The generated Cp value is inversely proportional to the amount of RNA expression of these targets. Inhibition of DENV replication by a test compound results in a shift of Cp's for the 3′UTR gene. On the other hand, if a test compound is toxic to the cells, a similar effect on 1-actin expression will be observed. The comparative ΔΔCp method is used to calculate EC50, which is based on the relative gene expression of the target gene (3′UTR) normalized with the cellular housekeeping gene (1-actin). In addition, CC50 values are determined based on the C, values acquired for the housekeeping gene β-actin.
(§2) The culture medium consisted of minimal essential medium supplemented with 2% of heat-inactivated fetal calf serum, 0.04% gentamycin (50 mg/mL) and 2 mM of L-glutamine. Vero cells, obtained from ECACC, were suspended in culture medium and 75 μL/well was added in 96-well plates (10000 cells/well), which already contain the antiviral compounds. […] In addition, each plate contains wells which are assigned as virus controls (containing cells and virus in the absence of compound) and cell controls (containing cells in the absence of virus and compound). Once the cells were added in the plates, the plates were incubated in a fully humidified incubator (37° C., 5% CO2) until the next day. Dengue viruses serotype-1, 2, 3 and 4 were diluted in order to obtain a Cp of ˜22-24 in the assay. Therefore, 25 μL of virus suspension was added to all the wells containing test compound and to the wells assigned as virus control. In parallel, 25 μL of culture medium was added to the cell controls. Next, the plates were incubated for 3 days in a fully humidified incubator (37° C., 5% CO2). After 3 days, the supernatant was removed from the wells and the cells were washed twice with ice-cold PBS (−100 μL). The cell pellets within the 96-well plates were stored at −80° C. for at least 1 day. Next, RNA was extracted using the Cells-to-CT™ lysis kit, according to the manufacturer's guideline (Life Technologies). The cell lysates can be stored at −80° C. or immediately used in the reverse transcription step.
(§3) In preparation of the reverse transcription step, mix A (table 3A) was prepared and 7.57 μL/well was dispensed in a 96-well plate. After addition of 5 μL of the cell lysates, a five minute denaturation step at 75° C. was performed (table 3B). Afterwards, 7.43 μL of mix B was added (table 3C) and the reverse transcription step was initiated (table 3D) to generate cDNA.
(§4) Finally, a RT-qPCR mix was prepared, mix C (table 4A), and 22.02 μL/well was dispensed in 96-well LightCycler qPCR plates to which 3 μL of cDNA was added and the qPCR was performed according to the conditions in table 4B on a LightCycler 480.
(§5) Using the LightCycler software and an in-house LIMS system, dose response curves for each compound were calculated and the half maximal effective concentration (EC50) and the half maximal cytotoxic concentration (CC50) were determined (Tables 5-8).

[2] = system: DENV-3 strain H87; experiment: Tetravalent RT-qPCR assay, serotype 3; format: cell-based; conditions: Dengue virus, DENV3, 72 h; RT-qPCR serotype 3 H87, Vero cells, day 3
Procedure: as §1, §2, §3, §4, §5

[3] = in vitro; format: cell-based; conditions: African green monkey
Procedure: as §1, with “The comparative ΔΔCp method is used to calculate EC50, which is based on the relative gene expression of the target gene (3′UTR) normalized with the cellular housekeeping gene (1-actin).” left out, “β-actin. […]” for “β-actin.”
as §5

[4] = system: DENV-1 strain TC974#666; experiment: Tetravalent RT-qPCR assay, serotype 1; format: cell-based; conditions: Dengue virus, DENV1, 72 h; RT-qPCR serotype 1 TC974#666, Vero cells, day 3
Procedure: as §1, §2, §3, §4, §5

[5] = system: DENV-2 strain 16681; experiment: Tetravalent RT-qPCR assay, serotype 2; format: cell-based; conditions: Dengue virus, DENV2, 72 h; RT-qPCR serotype 2 16681, Vero cells, day 3
Procedure: as §1, §2, §3, §4, §5

[6] = system: DENV-2 16681 strain; experiment: DENV-2 antiviral assay (eGFP-labeled virus in Vero cells); format: cell-based, Dengue virus; conditions: DENV-2 16681 eGFP, MOI 0.5, 3 days
Procedure: The antiviral activity of all the compounds of the invention was tested against the DENV-2 16681 strain which was labeled with enhanced green fluorescent protein (eGPF). The culture medium consists of minimal essential medium supplemented with 2% of heat-inactivated fetal calf serum, 0.04% gentamycin (50 mg/mL) and 2 mM of L-glutamine. Vero cells, obtained from ECACC, were suspended in culture medium and 25 μL was added to 384-well plates (2500 cells/well), which already contain the antiviral compounds. Typically, these plates contain a 5-fold serial dilution of 9 dilution steps of the test compound at 200 times the final concentration in 100% DMSO (200 nL). […] Finally, each plate contains wells which are assigned as virus controls (containing cells and virus in the absence of compound), cell controls (containing cells in the absence of virus and compound) and medium controls (containing medium in the absence of cells, virus and compounds). To the wells assigned as medium control, 25 μL of culture medium was added instead of Vero cells. Once the cells are added to the plates, the plates were incubated for 30 minutes at room temperature to allow the cells to distribute evenly within the wells. Next, the plates were incubated in a fully humidified incubator (37° C., 5% CO2) until the next day. Then, DENV-2 strain 16681, labeled with eGFP, was added at a multiplicity of infection (MOI) of 0.5.
Therefore, 15 μL of virus suspension was added to all the wells containing test compound and to the wells assigned as virus control. In parallel, 15 μL of culture medium was added to the medium and cell controls. Next, the plates were incubated for 3 days in a fully humidified incubator (37° C., 5% CO2). At the day of the read out, the eGFP fluorescence was measured using an automated fluorescence microscope at 488 nm (blue laser). Using an in-house LIMS system, inhibition dose response curves for each compound were calculated and the half maximal effective concentration (EC50) was determined. Therefore, the percent inhibition (I) for every test concentration is calculated using the following formula: I=100*(ST−SCC)/(SVC−SCC); ST, SCC and SVC are the amount of eGFP signal in the test compound, cell control and virus control wells, respectively. The EC50 represents the concentration of a compound at which the virus replication is inhibited with 50%, as measured by a 50% reduction of the eGFP fluorescent intensity compared to the virus control. The EC50 is calculated using linear interpolation (Table 1).

[7] = system: Vero cells; conditions: African green monkey

COc1cc(NC(C(=O)N2CCc3ccc(OC(F)(F)F)cc32)c2ccc(F)cc2OC)cc(OCCCC(=O)O)c1 (single isomer, unassigned) [Compound 6B, 4-(3-((1-(4-fluoro-2-methoxyphenyl)-2-oxo-2-(6-(trifluoromethoxy)indolin-1-yl)ethyl)amino)-5-methoxyphenoxy)butanoic acid]
EC50 [1]: 29 nM
EC50 [2]: 5.6 nM
CC50 at 3 days [3]: 13000 nM
EC50 [4]: 0.64 nM
EC50 [5]: 0.41 nM
EC50 [6]: 0.39 nM
CC50 [7]: 15000 nM
